We go through five compounds from patent US20020041862A1 (priority 1999, published 2002).

Assay [1] concerns the target T1, PrP^Sc in ScN2a cells (Mus musculus, UniProt P04925). Type of assay: cell-based.
Assay [2] deals with T1, PrP^Sc in ScN2a cells. To be noted: cited from earlier work.
The target of assay [3] is T1, PrP^Sc in ScN2a cells. Conditions: cited from earlier work. This is another data set of the same source.

Entries after “also recorded” stand apart in the source; their conditions may differ.

T1 sequence (P04925 23-230 limits assumed): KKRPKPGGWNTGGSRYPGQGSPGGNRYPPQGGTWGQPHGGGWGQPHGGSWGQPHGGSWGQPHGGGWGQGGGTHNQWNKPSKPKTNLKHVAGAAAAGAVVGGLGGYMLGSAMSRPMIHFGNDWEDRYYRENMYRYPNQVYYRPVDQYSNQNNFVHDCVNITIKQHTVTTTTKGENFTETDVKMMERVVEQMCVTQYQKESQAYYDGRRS

With NH4Cl, the “effect of lysosomotropic agent on ability of PEI to eliminate PrP^Sc” value on PrP^Sc in ScN2a cells [1] is recorded as “failure of NH4Cl to affect PrP^Sc levels; also recorded: barely detectable amounts of PrP^Sc”. Further, the “formation of PrP^Sc” value on PrP^Sc in ScN2a cells [2] is “do not interfere with the formation of PrP^Sc”. Moreover, the “effect of lysosomotropic agent alone on PrP^Sc levels” value on PrP^Sc in ScN2a cells [3] was “have no effect on PrP^Sc levels”.

Take `OCC(O)CO` [glycerol]: on PrP^Sc in ScN2a cells [2], the “formation of PrP^Sc” value is “inhibit the formation of new PrP^Sc”. At PrP^Sc in ScN2a cells [3], the “reduction of pre-existing PrP^Sc levels” value is on record as “cannot reduce pre-existing PrP^Sc levels”.

As to `CC[C@@]1([C@@H]2O[C@@H]([C@H]3O[C@@](O)(CO)[C@H](C)C[C@@H]3C)C[C@@H]2C)CC[C@H]([C@]2(C)CC[C@]3(C[C@H](O)[C@@H](C)[C@@H]([C@@H](C)[C@@H](OC)[C@H](C)C(=O)O)O3)O2)O1` [monensin], the “formation of PrP^Sc” value at PrP^Sc in ScN2a cells [2] was “do not interfere with the formation of PrP^Sc”.

For `CCN(CC)CCCC(C)Nc1ccnc2cc(Cl)ccc12` (centres unmarked) [chloroquine], the “effect of lysosomotropic agent on ability of PEI to eliminate PrP^Sc” value at PrP^Sc in ScN2a cells [1] is given as “blocked the ability of PEI to eliminate PrP^Sc; also recorded: clear bands for PrP^Sc”. Further, the “formation of PrP^Sc” value on PrP^Sc in ScN2a cells [2] is recorded as “do not interfere with the formation of PrP^Sc”. For the same compound, the “effect of lysosomotropic agent alone on PrP^Sc levels” value at PrP^Sc in ScN2a cells [3] is given as “have no effect on PrP^Sc levels”.

Turning to `C[S+](C)[O-]` [DMSO, dimethyl sulfoxide], on PrP^Sc in ScN2a cells [2], the “formation of PrP^Sc” value was “inhibit the formation of new PrP^Sc”. Further, on PrP^Sc in ScN2a cells [3], the “reduction of pre-existing PrP^Sc levels” value is listed as “cannot reduce pre-existing PrP^Sc levels”.
